Source: PubChem BioAssay AID179 (DTP/NCI, 2004)
Where “and” joins values, the source holds several entries; their conditions need not be identical. Identical values can stand only once.

Tested on: CEM cells HIV-1 protection, formazan growth assay
Assay: NCI AIDS Antiviral Assay
Conditions: for IC50: measured here: growth of uninfected CEM cells
Procedure, shortened: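 Soluble formazan readout of cell growth; CEM cells ± HIV-1; 5 drug concs. ≥50% protection → retest; ≥50% again = moderately active; reproducible 100% = confirmed active.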

Row | SMILES | EC50 [µM] | IC50
1 | CC(OC(=O)C(CC(=O)OC(C)(C)C)NC(=O)OC(C)(C)C)C(=O)OCc1ccccc1 (configuration not stated) | > 200 | > 200 µM
2 | COc1ccc(CC2=NCCc3cc(OC)c(OC)cc32)cc1Br | > 240 | 3.47 µM
3 | O=C(NCCNCCCNC(=O)c1cc(-c2ccccc2)nc2ccccc12)c1cccc(OCc2ccccc2)c1OCc1ccccc1 | > 200 | 1.1 µM
4 | O=C1NC(CSSCC2NC(=O)N(c3ccccc3)C2=O)C(=O)N1c1ccccc1 (configuration not stated) | > 200 | 1.12 µM
5 | C=C(COCO)C(C)=O | > 200 | 1.45 µM
6 | NCC(SSC(CN)C(=O)O)C(=O)O (configuration not stated) | > 200 | > 200 µM
7 | C(/Cc1ccc2c(c1)OCO2)=N\NC1=NCCCN1 | > 200 | 38.9 µM
8 | CC(=O)Oc1c2c(c(CC=C(C)C)c3c1C(=O)C1=C[C@@H]4CC5C(C)(C)OC(C/C=C(/C)C(=O)O)(C4=O)[C@@]15O3)OC(C)(CCC=C(C)C)C=C2 (some centres not stated) | > 2 | 0.324 µM
9 | Cc1c2ccccc2nc(CS(C)(=O)=O)[n+]1[O-] | > 200 | > 200 µM
10 | CC12CCC(=O)N1c1cncnc1N2 (configuration not stated) | > 1320 | > 1320 µM
11 | C/C(=C\CO)CCC1=C(C=O)C[C@H](OC2OCC(O)C(O)C2O)C2[C@@](C)(CO)CCC[C@]12C (some centres not stated) | > 263 | > 263 µM
12 | COC1/C=C/OC2(C)Oc3c(C)c(O)c4c(O)c(c(/C=N/N5C(C)CN(Cc6ccccc6C#N)CC5C)c(O)c4c3C2=O)NC(=O)/C(C)=C\C=C\C(C)C(O)C(C)C(O)C(C)C(OC(C)=O)C1C (configuration not stated) | > 200 | 7.41 µM
13 | COc1c2c(cc3c1C1(O)Cc4ccc5c(c4C[N+]1(C)CC3)OCO5)OCO2 (configuration not stated) | > 61.7 | > 61.7 µM
14 | CC(C)N1CN(C(C(=O)N[C@@H]2C(=O)N3C2SC(C)(C)C3C(=O)O)c2ccc(O)cc2)CSC1=S (some centres not stated) | > 479 | 79.4 µM
15 | COc1nc2c(c(O)c(C)c(=O)n2OC2OC(COC(C)=O)C(OC(C)=O)C(OC(C)=O)C2OC(C)=O)c(=O)n1C (configuration not stated) | > 61.7 | > 61.7 µM
16 | C=CCN1C(=O)CS/C1=N\NC(=O)c1c(C)nc2sccn12 | > 741 | 240 µM

Row | SMILES | EC50 [µM] | IC50
17 | COC(=O)c1ccc(C)cc1CC1Cc2ccc(C)cc2C1=O (configuration not stated) | > 200 | 4.79 µM
18 | NC(CCSSCCC(N)C(=O)O)C(=O)O (configuration not stated) | > 19.5 | > 19.5 µM
19 | COC(=O)C1C(=O)C(C(=O)OC)C23C(C)CCC12C(C(=O)OC)C(=O)C3C(=O)OC (configuration not stated) | > 46.8 | > 46.8 µM
20 | O=C(OCc1ccccc1)c1ccccc1-c1c2ccc(=O)cc-2oc2cc(OCc3ccccc3)ccc12 | > 5.13 | > 5.13 µM
21 | C[N+](C)(CCNc1ccc(NCC[N+](C)(C)Cc2ccc([N+](=O)[O-])cc2)c2c1C(=O)c1ccccc1C2=O)Cc1ccc([N+](=O)[O-])cc1 | > 151 | > 151 µM
22 | O=C1NC(N/N=C\C(O)C(O)C(O)C(O)CO)=N/C1=C/c1ccccc1 (configuration not stated) | > 200 | 105 µM and 31.6 µM and > 200 µM
23 | Cc1ccc(-n2cc(-c3ccc(Cl)cc3)c(C#N)c2N)cc1 | > 200 | 22.4 µM
24 | CC(C)(c1ccc(OP2(=O)OCC3(CC=CCC3)CO2)cc1)c1ccc(OP2(=O)OCC3(CC=CCC3)CO2)cc1 (configuration not stated) | > 200 | 22.9 µM
25 | CCn1c(SCC(=O)NNC(=S)Nc2ccc(Cl)cc2)nc2ccccc2c1=O | > 200 | 95.5 µM
26 | CCCCCCCCCCCCCCCC[N+]1(C)CC2CCCCC2C1 (configuration not stated) | > 2 | 0.55 µM
27 | Cc1cc(NS(=O)(=O)c2ccc(NC(=O)c3ccc(Cl)c4c(Nc5ccc(S(=O)(=O)N=C(N)N)cc5)c5ccccc5nc34)cc2)no1 | > 51.3 | > 51.3 µM
28 | O=S(=O)(O)c1ccc(NN(c2c(O)ccc3ccccc23)S(=O)(=O)O)cc1 | > 550 | 229 µM
29 | ClC1(Cl)C2CCOC21n1cnc2ccccc21 (configuration not stated) | > 200 | 102 µM
30 | COc1cc(C[N+]23CC[N+](Cc4cc(OC)cc(OC)c4)(CC2)C3)cc(OC)c1 | > 525 | 214 µM
31 | O=c1[nH]c2ccccc2c(O)c1/C=N/C(=S)NC1CCCCC1 | > 200 | > 200 µM
